Experiment [1] concerns the target TANK binding kinase (TBK1) (Homo sapiens (Human), UniProt Q9UHD2). Put plainly: TBK1 enzyme assay (384-well flashplate kinase assay). The conditions noted are these: 0.6 nM TBK1, 10 μM ATP, 30° C., 120 min. The class given is biochemical.
The target in experiment [2] is IKKε (Homo sapiens (Human), UniProt Q14164). Put plainly: IKKε kinase assay (384-well flashplate assay). The class given is biochemical. As to conditions: 1 nM IKKε, 10 μM ATP, 30° C., 2 hours; read-out: IKKε enzyme assay IC50. The protocol: Test for the Inhibition of IKKε
IKKε—Kinase Assay (IKKepsilon)
The kinase assay is performed as 384-well flashplate assay (for example for Topcount measurement).
1 nM IKKε, 800 nM biotinylated IκBα(19-42) peptide (Biotin-C6-C6-[…]) and 10 μM ATP (spiked with 0.3 μCi of ^33P-ATP/well) are incubated at 30° C. for 2 hours in a total volume of 50 μl (10 mM MOPS, 10 mM Mg acetate, 0.1 mM EGTA, 1 mM dithiothreitol, 0.02% of Brij35, 0.1% of BSA, 0.1% of BioStab, pH 7.5) with or without test compound. The reaction is stopped using 25 μl of 200 mM EDTA. After 30 min at room temperature, the liquid is removed, and each well is washed three times with 100 μl of 0.9% sodium chloride solution. Non-specific reaction is determined in the presence of 3 μM MSC2119074 (BX-795). The radioactivity is measured using a Topcount (PerkinElmer). The results (for example IC50 values) are calculated using program tools provided by the IT Department (for example AssayExplorer, Symyx).

The test system of experiment [3] is TBK1 + IKKε (phospho-IRF3 @ Ser 386, MDA-MB-468 cells). Kind of experiment: TBK1 + IKKε cell assay: dose response inhibition of phospho-IRF3 @ Ser 386 in MDA-MB-468 cells. The class given is cell-based. The conditions noted are these: Homo sapiens.
Protocol: Day 1: MDA-MB-468 cells are detached using HyQ-Tase, counted and sown into a 384-well plate with TC surface and clear bottom in a density of 10,000 cells per well in a total volume of 35 μl of complete medium. Alternatively, the cells are sown directly from frozen glass vials.
Day 2: The cells are pre-treated with inhibitor compounds for 1 h prior to poly(I:C) stimulation. After incubation for 2 h with poly(I:C), the cells are fixed in (para)formaldehyde (PFA) and permeabilised using methanol (MeOH). The cells are then blocked and incubated with an anti-pIRF3 antibody at 4° C. overnight.
Day 3: The primary antibody is washed off, an AlexaFluor488-conjugated secondary antibody is added, the cells are contrast-stained with propidium iodide, followed by image acquisition on an IMX ultra-high content reader.
Where [4] appears, read: poly(I:C) stimulation, nuclear phospho-IRF3, read-out: TBK1 + IKKε cell assay IC50.

Usually pIC50 stands for the IC50 on a negative log10 scale, so that one unit is a factor of ten.

Structures are written as SMILES. pIC50: −log10 of the molar value. Like-named read-outs stand apart in the source and are kept apart here.

IKKε, sequence (Q14164 whole entry): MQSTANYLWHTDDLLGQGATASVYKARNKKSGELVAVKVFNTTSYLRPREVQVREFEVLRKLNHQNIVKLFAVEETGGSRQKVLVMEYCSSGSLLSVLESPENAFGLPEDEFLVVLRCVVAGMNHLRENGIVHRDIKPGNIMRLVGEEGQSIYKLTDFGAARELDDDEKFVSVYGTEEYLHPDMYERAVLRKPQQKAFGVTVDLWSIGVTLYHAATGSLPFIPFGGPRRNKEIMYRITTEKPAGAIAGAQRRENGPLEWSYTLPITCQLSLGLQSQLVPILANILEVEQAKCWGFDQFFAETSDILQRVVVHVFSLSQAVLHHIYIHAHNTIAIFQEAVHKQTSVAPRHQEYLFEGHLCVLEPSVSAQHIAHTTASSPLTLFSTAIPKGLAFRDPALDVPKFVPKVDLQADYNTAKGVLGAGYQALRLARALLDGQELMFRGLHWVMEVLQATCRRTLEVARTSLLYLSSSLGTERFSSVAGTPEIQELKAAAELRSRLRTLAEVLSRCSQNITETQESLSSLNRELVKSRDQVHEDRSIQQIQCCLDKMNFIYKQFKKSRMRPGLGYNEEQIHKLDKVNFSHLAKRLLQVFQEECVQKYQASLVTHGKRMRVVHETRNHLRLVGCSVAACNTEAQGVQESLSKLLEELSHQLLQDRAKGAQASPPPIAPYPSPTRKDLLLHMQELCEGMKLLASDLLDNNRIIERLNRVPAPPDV
TANK binding kinase (TBK1), sequence (Q9UHD2 whole entry): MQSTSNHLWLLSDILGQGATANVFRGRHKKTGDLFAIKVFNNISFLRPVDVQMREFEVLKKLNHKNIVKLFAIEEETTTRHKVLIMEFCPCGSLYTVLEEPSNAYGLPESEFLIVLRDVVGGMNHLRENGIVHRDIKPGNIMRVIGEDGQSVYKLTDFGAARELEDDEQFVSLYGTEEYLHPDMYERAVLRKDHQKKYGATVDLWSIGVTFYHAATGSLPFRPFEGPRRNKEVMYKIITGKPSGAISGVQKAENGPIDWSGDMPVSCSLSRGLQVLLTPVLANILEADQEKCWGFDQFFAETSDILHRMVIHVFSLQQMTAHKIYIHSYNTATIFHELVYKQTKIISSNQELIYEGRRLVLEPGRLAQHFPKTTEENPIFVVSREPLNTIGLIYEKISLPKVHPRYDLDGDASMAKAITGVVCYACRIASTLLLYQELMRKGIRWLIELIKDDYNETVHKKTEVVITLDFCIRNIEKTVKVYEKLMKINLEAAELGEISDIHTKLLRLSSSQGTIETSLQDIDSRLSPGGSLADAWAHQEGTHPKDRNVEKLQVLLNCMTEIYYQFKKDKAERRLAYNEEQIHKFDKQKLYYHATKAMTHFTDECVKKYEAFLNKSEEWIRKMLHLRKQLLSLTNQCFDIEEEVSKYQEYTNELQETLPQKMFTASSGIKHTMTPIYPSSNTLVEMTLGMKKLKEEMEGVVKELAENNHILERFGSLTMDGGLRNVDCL

Turning to `COCCn1cc(Nc2nccc(-c3ccc(OCC4CCC4)c(C#N)c3)n2)cn1` [Compound A103, 2-cyclobutylmethoxy-5-{2-[1-(2-methoxyethyl)-1H-pyrazol-4-ylamino]pyrimidin-4-yl}benzonitrile], the pIC50 in experiment [1] was 8.15; in experiment [2] it was 8.10; in experiment [3] (setting [4]), 6.05.
For `N#Cc1cc(-c2ccnc(Nc3ccc(-c4cn[nH]c4)cn3)c2)ccc1OC1CCOCC1` [Compound A9, 5-{2-[5-(1H-Pyrazol-4-yl)pyridin-2-ylamino]pyridin-4-yl}-2-(tetrahydropyran-4-yloxy)benzonitrile] the same measures were 6.92, 7.00 and 5.52.
Consider `N#Cc1cc(-c2ccnc(Nc3cnn(C4CCNCC4)c3)n2)ccc1OC1CCOCC1` [Compound A64, 5-[2-(1-piperidin-4-yl-1H-pyrazol-4-ylamino)pyrimidin-4-yl]-2-(tetrahydropyran-4-yloxy)-benzonitrile], for which the pIC50 was 8.22 in experiment [1], 8.22 in experiment [2] and 6.64 in experiment [3] (setting [4]).
For the compound `O=C(NCCCNc1nc(Nc2cccc(NC(=O)N3CCCC3)c2)ncc1I)c1cccs1` [BX-795, reference compound], the pIC50 in experiment [3] (reference inhibitor range, read-out: IC50 of reference inhibitor in phospho-IRF3 cell assay) was 6.10 to 6.70.
Turning to `N#Cc1cc(-c2ccnc(Nc3cnn(CCC4CCN(C(=O)CN)CC4)c3)c2)ccc1OC1CCOCC1` [Compound A30, 5-[2-(1-{2-[1-(2-Aminoacetyl)piperidin-4-yl]ethyl}-1H-pyrazol-4-ylamino)pyridin-4-yl]-2-(tetrahydropyran-4-yloxy)benzonitrile], the pIC50 is 7.38 in experiment [1] and 7.35 in experiment [2].
For `N#Cc1cc(-c2ccnc(Nc3cnn(CC4CCOC4)c3)c2)ccc1OC1CCOCC1` (centres unmarked) [Compound A27, 5-{2-[1-(Tetrahydrofuran-3-ylmethyl)-1H-pyrazol-4-ylamino]pyridin-4-yl}-2-(tetrahydropyran-4-yloxy)benzonitrile], the pIC50 is 7.07 in experiment [1] and 7.11 in experiment [2].
For `N#Cc1cc(-c2ccnc(Nc3cnn(CCn4cccn4)c3)c2)ccc1OC1CCOCC1` [Compound A38, 5-{2-[1-(2-Pyrazol-1-ylethyl)-1H-pyrazol-4-ylamino]pyridin-4-yl}-2-(tetrahydropyran-4-yloxy)benzonitrile] the same measures were 6.34 and 6.49.
For `COCCn1cc(Nc2cc(-c3ccc(OCC4CCC4)c(C#N)c3)ccn2)cn1` [Compound A110, 2-cyclobutylmethoxy-5-{2-[1-(2-methoxyethyl)-1H-pyrazol-4-ylamino]-pyridin-4-yl}benzonitrile] the same measures were 6.31 and 7.09.
For `N#Cc1cc(-c2ccnc(Nc3ccc(CN4CC5(COC5)C4)cn3)c2)ccc1OC1CCOCC1` [Compound A88, 5-{2-[5-(2-oxa-6-azaspiro[3.3]hept-6-ylmethyl)pyridin-2-yl-amino]pyridin-4-yl}-2-(tetrahydropyran-4-yloxy)benzonitrile] the same measures were 7.39 and 7.35.
Consider `N#Cc1cc(-c2ccnc(Nc3ccc4oc(C(N)=O)cc4c3)c2)ccc1OC1CCOCC1` [Compound A19, 5-{4-[3-Cyano-4-(tetrahydropyran-4-yloxy)phenyl]pyridin-2-ylamino}benzofuran-2-carboxamide], for which the pIC50 was 5.72 in experiment [1] and 6.41 in experiment [2].
For `COCCn1cc(Nc2cc(-c3ccc(OCC4CCN(C(C)=O)CC4)c(C#N)c3)ccn2)cn1` [Compound A114, 2-(1-acetylpiperidin-4-ylmethoxy)-5-{2-[1-(2-methoxyethyl)-1H-pyrazol-4-ylamino]pyridin-4-yl}benzonitrile] the same measures were 5.26 and 6.19.
For `N#Cc1cc(-c2ccnc(Nc3cnn(C[C@H]4C[C@@H]4CO)c3)c2)ccc1OC1CCOCC1` [Compound A26, 5-{2-[1-((1S,2S)-2-Hydroxymethylcyclopropylmethyl)-1H-pyrazol-4-ylamino]-pyridin-4-yl}-2-(tetrahydropyran-4-yloxy)benzonitrile] the same measures were 7.74 and 7.57.
On to `N#Cc1cc(-c2ccnc(Nc3nc(C4CC4)cs3)n2)ccc1OC1CCOCC1` [Compound A87, 5-[2-(4-cyclopropylthiazol-2-ylamino)pyrimidin-4-yl]-2-(tetrahydropyran-4-yloxy)benzonitrile], for which the pIC50 in experiment [1] and in experiment [2] was 6.52 each time.
Consider `N#Cc1cc(-c2ccnc(Nc3cn[nH]c3)c2)ccc1OCC1CCC1` [Compound A109, 2-cyclobutylmethoxy-5-[2-(1H-pyrazol-4-ylamino)pyridin-4-yl]benzonitrile], for which the pIC50 in experiment [1] is 6.42; in experiment [2] it was 6.85.
For `N#Cc1cc(-c2ccnc(Nc3nccnc3CO)c2)ccc1OC1CCOCC1` [Compound A102, 5-[2-(3-hydroxymethylpyrazin-2-ylamino)pyridin-4-yl]-2-(tetrahydropyran-4-yloxy)benzonitrile] the same measures were 6.46 and 6.37.
For `N#Cc1cc(-c2ccnc(Nc3ccc(C(F)(F)F)cn3)c2)ccc1OC1CCOCC1` [Compound A13, 2-(Tetrahydropyran-4-yloxy)-5-[2-(5-trifluoromethylpyridin-2-ylamino)pyridin-4-yl]-benzonitrile] the same measures were 6.51 and 6.28.
On to `N#Cc1cc(-c2ccnc(Nc3cnn(CC4CCOC4)c3)n2)ccc1OC1CCOCC1` (centres unmarked) [Compound A41, 5-{2-[1-(Tetrahydrofuran-3-ylmethyl)-1H-pyrazol-4-ylamino]pyrimidin-4-yl}-2-(tetrahydropyran-4-yloxy)benzonitrile], for which the pIC50 in experiment [1] is 7.92; in experiment [2], 7.60.
With `N#Cc1cc(-c2ccnc(Nc3cc(N4CCOCC4)ccn3)c2)ccc1OC1CCOCC1` [Compound A82, 5-[2-(4-morpholin-4-ylpyridin-2-ylamino)pyridin-4-yl]-2-(tetrahydropyran-4-yloxy)benzonitrile], the pIC50 is 6.64 in experiment [1] and 6.82 in experiment [2].
For `N#Cc1cc(-c2ccnc(Nc3ccc(CO)cn3)c2)ccc1OC1CCOCC1` [Compound A15, 5-[2-(5-Hydroxymethylpyridin-2-ylamino)pyridin-4-yl]-2-(tetrahydropyran-4-yloxy)benzonitrile] the same measures were 7.85 and 7.68.
On to `N#Cc1cc(-c2ccnc(Nc3nccc(C4CCNCC4)n3)c2)ccc1OC1CCOCC1` [Compound A89, 5-[2-(4-piperidin-4-ylpyrimidin-2-ylamino)pyridin-4-yl]-2-(tetrahydropyran-4-yloxy)benzonitrile], for which the pIC50 in experiment [1] was 6.85; in experiment [2], 6.92.
For `N#Cc1cc(-c2ccnc(Nc3cc(C(=O)O)ccn3)c2)ccc1OC1CCOCC1` [Compound A65, 2-{4-[3-cyano-4-(tetrahydropyran-4-yloxy)phenyl]pyridin-2-ylamino}isonicotinic acid] the same measures were 6.77 and 6.92.
For the compound `N#Cc1cc(-c2ccnc(Nc3cn[nH]c3)c2)ccc1OCC1CC1` [Compound A104, 2-cyclopropylmethoxy-5-[2-(1H-pyrazol-4-ylamino)pyridin-4-yl]-benzonitrile], the pIC50 in experiment [1] was 6.34; in experiment [2], 7.02.
Take `CC(C)(C)c1cc(Nc2cc(-c3ccc(OC4CCOCC4)c(C#N)c3)ccn2)on1` [Compound A31, 5-[2-(3-tert-Butylisoxazol-5-ylamino)pyridin-4-yl]-2-(tetrahydropyran-4-yloxy)benzonitrile]: the pIC50 in experiment [1] and in experiment [2] was 6.07 in each case.
Take `CC(=O)N1CCC(COc2ccc(-c3ccnc(Nc4ccc(N5CCOCC5)cn4)c3)cc2C#N)CC1` [Compound A117, 2-(1-acetylpiperidin-4-ylmethoxy)-5-[2-(5-morpholin-4-ylpyridin-2-ylamino)pyridin-4-yl]benzonitrile]: the pIC50 in experiment [1] is 6.09; in experiment [2], 6.21.
For `N#Cc1cc(-c2ccnc(Nc3ncccn3)c2)ccc1OC1CCOCC1` [Compound A14, 5-[2-(Pyrimidin-2-ylamino)pyridin-4-yl]-2-(tetrahydropyran-4-yloxy)benzonitrile] the same measures were 6.17 and 5.92.
On to `N#Cc1cc(-c2ccnc(Nc3cc(C4=CCCCO4)ccn3)c2)ccc1OC1CCOCC1` [Compound A86, 5-{2-[4-(5,6-dihydro-4H-pyran-2-yl)pyridin-2-ylamino]pyridin-4-yl}-2-(tetrahydropyran-4-yloxy)benzonitrile], for which the negative logarithm of the IC50 (pIC50) in experiment [1] is 6.54; in experiment [2] it was 6.52.
For `N#Cc1cc(-c2ccnc(Nc3cncc(N4CCOCC4)n3)c2)ccc1OC1CCOCC1` [Compound A85, 5-[2-(6-morpholin-4-ylpyrazin-2-ylamino)pyridin-4-yl]-2-(tetrahydropyran-4-yloxy)benzonitrile] the same measures were 6.48 and 6.41.

Source of the values: patent publication US8969335B2, “Benzonitrile derivatives as kinase inhibitors” (MERCK PATENT GmbH, priority 2011, dated 2015).
